The subject of one experiment is HCV replicon. Kind of experiment: HCV replicon FRET / luciferase assay (NeoLuc). In kind it is cell-based, HCV genotype 1b. Particulars: Hepatitis C virus, Table 2; HCV replicon cells; read-out: NeoLuc EC50. The text has this:
FRET Assay Preparation. To perform the HCV FRET screening assay, 96-well cell culture plates were used. The FRET peptide (Anaspec, Inc.) (Taliani et al., Anal. Biochem. 1996, 240, 60-67) contains a fluorescence donor, EDANS, near one end of the peptide and an acceptor, DABCYL, near the other end. The fluorescence of the peptide is quenched by […] resonance energy transfer (RET) between the donor and the acceptor, but as the NS3 protease cleaves the peptide the products are released from RET quenching and the fluorescence of the donor becomes apparent. The assay reagent was made as follows: 5× cell Luciferase cell culture lysis reagent from Promega (#E153A) diluted to 1× with dH2O, NaCl added to 150 mM final, the FRET peptide diluted to 20 μM final from a 2 mM stock.
To prepare plates, HCV replicon cells, with or without a Renilla luciferase reporter gene, were trypsinized and placed into each well of a 96-well plate with titrated test compounds added in columns 3 through 12; columns 1 and 2 contained a control compound (HCV protease inhibitor), and the bottom row contained cells without compound. The plates were then placed in a CO2 incubator at 37° C.
Assays. Subsequent to addition of the test compounds described above (FRET Assay Preparation), at various times the plate was removed and Alamar blue solution (Trek Diagnostics, #00-100) was added per well as a measure of cellular toxicity. After reading in a Cytoflour 4000 instrument (PE Biosystems), plates were rinsed with PBS and then used for FRET assay by the addition of 30 ul of the FRET peptide assay reagent described above (FRET Assay Preparation) per well. The plate was then placed into the Cytoflour 4000 instrument which had been set to 340 excite/490 emission, automatic mode for 20 cycles and the plate read in a kinetic mode. Typically, the signal to noise using an endpoint analysis after the reads was at least three-fold. Alternatively, after Alamar blue reading, plates were rinsed with PBS, 50 ul of DMEM (high glucose) without phenol red was added and plates were then used for luciferase assay using the Promega Dual-Glo Luciferase Assay System,
Compound analysis was deteiniined by quantification of the relative HCV replicon inhibition and the relative cytotoxicity values. To calculate cytoxicity values, the average Alamar Blue fluorescence signals from the control wells were set as 100% non-toxic. The individual signals in each of the compound test wells were then divided by the average control signal and multiplied by 100% to determine […]. To calculate the HCV replicon inhibition values, an average background value was obtained from the two wells containing the highest amount of HCV protease inhibitor at the end of the assay period. These numbers were similar to those obtained from naïve Huh-7 cells.
The background numbers were then subtracted from the average signal obtained from the control wells and this number was used as 100% activity. The individual signals in each of the compound test wells were then divided by the averaged control values after background subtraction and multiplied by 100% to determine percent activity. EC50 values for a protease inhibitor titration were calculated as the concentration which caused a 50% reduction in FRET or luciferase activity. The two numbers generated for the compound plate, percent cytoxicity and percent activity were used to determine compounds of interest for further analysis.
A general note: In antiviral work, replicon cells carry a viral genome segment that copies itself.
The EC50 is the concentration that produces a half-maximal response. As for `COc1ccc2c(c1)C1CC1(C(=O)N1CC34COCC3(CN(C)C4)C1)Cn1c-2c(C2CCCCC2)c2ccc(C(=O)NS(=O)(=O)N(C)C)cc21` (stereo not shown) [drawing 106], the EC50 is 20 nM. Still for that read-out and setting: the result for `COc1ccc2c(c1)C1CC1(C(=O)N1CC34CNCC3(CN(C)C4)C1)Cn1c-2c(C2CCCCC2)c2ccc(C(=O)NS(=O)(=O)C3CC3)cc21` (stereo not shown) reads over 1000 nM.

The experiment is the same for the next values; noted with them: Hepatitis C virus, genotype 1b, read-out: NeoLuc EC50, Table 1; HCV replicon cells, genotype 1b.
With `COc1ccc2c(c1)[C@@H]1C[C@]1(C(=O)N1CC34CNCC3(COC4)C1)Cn1c-2c(C2CCCCC2)c2ccc(C(=O)NS(=O)(=O)C(C)C)cc21` (stereo partly shown), the EC50 lay in the range of 1.9 to 500 nM. Same read-out and setting: the result for `COc1ccc2c(c1)C1CC1(C(=O)N1CC34COCC3(CN(C)C4)C1)Cn1c-2c(C2CCCCC2)c2ccc(C(=O)NS(=O)(=O)N(C)C)cc21` (stereo not shown) [drawing 61] reads 1.9 to 500 nM; that for `COc1ccc2c(c1)C1CC1(C(=O)N1CC34CNCC3(CN(C)C4)C1)Cn1c-2c(C2CCCCC2)c2ccc(C(=O)NS(=O)(=O)N(C)C)cc21` (stereo not shown), 1.9 to 500 nM. The same measure, in the same setting: the result for `COc1ccc2c(c1)[C@@H]1C[C@]1(C(=O)N1CC34CN(C)CC3(CN(C)C4)C1)Cn1c-2c(C2CCCCC2)c2ccc(C(=O)NS(=O)(=O)C(C)C)cc21` (stereo partly shown) reads 1.9 to 500 nM; that for `COc1ccc2c(c1)CC(C(=O)N1CC34CN(C)CC3(CN(C)C4)C1)Cn1c-2c(C2CCCCC2)c2ccc(C(=O)NS(=O)(=O)N(C)C)cc21` (stereo not shown), 1.9 to 500 nM. As to `COc1ccc2c(c1)C1CC1(C(=O)N1CC34CN(C)CC3(CN(C)C4)C1)Cn1c-2c(C2CCCCC2)c2ccc(C(=O)NS(=O)(=O)N(C)C)cc21` (stereo not shown), the 50% effective concentration (EC50) lay within 1.9 to 500 nM.

For the compound `COc1ccc2c(c1)C1CC1(C(=O)N1CC34CNCC3(COC4)C1)Cn1c-2c(C2CCCCC2)c2ccc(C(=O)NS(=O)(=O)N(C)C)cc21` (stereo not shown), the EC50 was 1.9 to 500 nM.

In the case of `COc1ccc2c(c1)CC(C(=O)N1CC34COCC3(CN(C)C4)C1)Cn1c-2c(C2CCCCC2)c2ccc(C(=O)NS(=O)(=O)C3CC3)cc21` (stereo not shown), the EC50 fell in the range of 1.9 to 500 nM. On to `COc1ccc2c(c1)C=C(C(=O)N1CC34COCC3(CN(C)C4)C1)Cn1c-2c(C2CCCCC2)c2ccc(C(=O)NS(=O)(=O)N(C)C)cc21` (stereo not shown), for which the EC50 was in the range of 1.9 to 500 nM. Consider `COc1ccc2c(c1)CC(C(=O)N1CC34CNCC3(COC4)C1)Cn1c-2c(C2CCCCC2)c2ccc(C(=O)NS(=O)(=O)C3CC3)cc21` (stereo not shown), for which the EC50 is over 1000 nM.

With `C=C(C)S(=O)(=O)NC(=O)c1ccc2c(C3CCCCC3)c3n(c2c1)C[C@@]1(C(=O)N2CC45COCC4(CN(C)C5)C2)C[C@H]1c1cc(OC)ccc1-3` (stereo partly shown), the EC50 is 1.9 to 500 nM. As to `COc1ccc2c(c1)C=C(C(=O)N1CC34CN(C)CC3(CN(C)C4)C1)Cn1c-2c(C2CCCCC2)c2ccc(C(=O)NS(=O)(=O)N(C)C)cc21` (stereo not shown), the EC50 fell in the range of 1.9 to 500 nM. `COc1ccc2c(c1)[C@@H]1C[C@]1(C(=O)N1CC34COCC3(C1)CN(C1CC1)C4)Cn1c-2c(C2CCCCC2)c2ccc(C(=O)NS(=O)(=O)C(C)C)cc21` (stereo partly shown): the EC50 is 1.9 to 500 nM. With `COc1ccc2c(c1)[C@@H]1C[C@]1(C(=O)N1CC34CNCC3(CN(C)C4)C1)Cn1c-2c(C2CCCCC2)c2ccc(C(=O)NS(=O)(=O)C(C)C)cc21` (stereo partly shown), the EC50 was 1.9 to 500 nM. `COc1ccc2c(c1)C1CC1(C(=O)N1CC34COCC3(CN(C(C)=O)C4)C1)Cn1c-2c(C2CCCCC2)c2ccc(C(=O)NS(=O)(=O)CC(C)C)cc21` (stereo not shown): the EC50 fell in the range of 1.9 to 500 nM. Same read-out and setting: the result for `COc1ccc2c(c1)C=C(C(=O)N1CC34COCC3(C1)N(C(C)=O)C4)Cn1c-2c(C2CCCCC2)c2ccc(C(=O)NS(=O)(=O)N(C)C)cc21` (stereo not shown) reads 1.9 to 500 nM; that for `COc1ccc2c(c1)[C@@H]1C[C@]1(C(=O)N1CC34COCC3(CN(C)C4)C1)Cn1c-2c(C2CCCCC2)c2ccc(C(=O)NS(=O)(=O)C(C)C)cc21` (stereo partly shown), 1.9 to 500 nM.

`COc1ccc2c(c1)[C@@H]1C[C@]1(C(=O)N1CC34COCC3(C1)N(C(C)=O)C4)Cn1c-2c(C2CCCCC2)c2ccc(C(=O)NS(=O)(=O)N(C)C)cc21` (stereo partly shown): the EC50 was 1.9 to 500 nM. Still for that read-out and setting: the result for `COc1ccc2c(c1)[C@@H]1C[C@]1(C(=O)N1CC34COCC3(C1)N(C(C)=O)C4)Cn1c-2c(C2CCCCC2)c2ccc(C(=O)NS(=O)(=O)C(C)C)cc21` (stereo partly shown) [drawing 73] reads 1.9 to 500 nM; that for `COc1ccc2c(c1)C=C(C(=O)N1CC34CNCC3(COC4)C1)Cn1c-2c(C2CCCCC2)c2ccc(C(=O)NS(=O)(=O)N(C)C)cc21` (stereo not shown), 1.9 to 500 nM.

Consider `COc1ccc2c(c1)CC(C(=O)N1CC34CNCC3(CN(C)C4)C1)Cn1c-2c(C2CCCCC2)c2ccc(C(=O)NS(=O)(=O)C3CC3)cc21` (stereo not shown), for which the EC50 was over 1000 nM. Same read-out and setting: as for `COc1ccc2c(c1)C=C(C(=O)N1CC34COCC3(CN(C)C4)C1)Cn1c-2c(C2CCCCC2)c2ccc(C(=O)NS(=O)(=O)C3CC3)cc21` (stereo not shown), the figure is 1.9 to 500 nM; as for `COc1ccc2c(c1)C=C(C(=O)N1CC34CNCC3(COC4)C1)Cn1c-2c(C2CCCCC2)c2ccc(C(=O)NS(=O)(=O)C3CC3)cc21` (stereo not shown), 1.9 to 500 nM. Regarding `CCN1CC23COCC2(C1)CN(C(=O)[C@]12C[C@H]1c1cc(OC)ccc1-c1c(C4CCCCC4)c4ccc(C(=O)NS(=O)(=O)C(C)C)cc4n1C2)C3` (stereo partly shown), the EC50 lay within 1.9 to 500 nM.

The same experiment, now with this note: Table 2; HCV replicon cells; read-out: NeoLuc EC50.
In the case of `COc1ccc2c(c1)[C@@H]1C[C@]1(C(=O)N1CC34COCC3(C1)N(C(C)=O)C4)Cn1c-2c(C2CCCCC2)c2ccc(C(=O)NS(=O)(=O)C(C)C)cc21` (stereo partly shown) [drawing 109], the EC50 amounted to 130 nM. In the case of `COc1ccc2c(c1)[C@@H]1C[C@]1(C(=O)N1CC34COCC3(C1)N(C(C)=O)C4)Cn1c-2c(C2CCCCC2)c2ccc(C(=O)NS(=O)(=O)C(C)C)cc21` (stereo partly shown) [drawing 110], the EC50 is 10 nM.
